Source: patent US12568964B2 (priority 2019, dated 2026)
Read-outs that look alike come from different tables or passages of the source.

System: Xylella fastidiosa
Assay type: in vivo
Conditions: 5 treatments; for Phenotypic improvement of infected olive plants after treatment: 5% w/v, sprayed on foliage, trunk and adjacent soil; for State of treated plants at 9 months after the treatment: 5% w/v in bidistilled water, 9 months after treatment

| Compound | Phenotypic improvement of infected olive plants after treatment (Example 3.1: three olive trees, 200 mg per plant suspended in bidistilled water, one every 5 days) | State of treated plants at 9 months after the treatment (Example 3.1: three olive trees, 200 mg per plant, one every 5 days) | Phenotypic improvement of infected olive plants after treatment (Example 3.4: four olive trees, 150 mg per plant suspended in bidistilled water, one every 5 days) | State of treated plants at 9 months after the treatment (Example 3.4: four olive trees, 150 mg per plant) |
| --- | --- | --- | --- | --- |
| 5-hydroxy-naphthalen-1,4-dione complexed with copper | Phenotypic improvements of the plant were observed with the birth of new shoots on the branches previously in a state of desiccation and disappearance of the crumpled and yellowish colored leaves | still free of crumpled and yellowish colored leaves and dried branches |  |  |
| O=C1C=CC(=O)c2c(O)cccc21 [5-hydroxy-naphthalene-1,4-dione] |  |  | Phenotypic improvements of the plant were observed with the birth of new shoots on the branches previously in a state of desiccation and disappearance of the crumpled and yellowish colored leaves | still free of crumpled and yellowish colored leaves and dried branches |
